According to patent US20030053950A1, “Individualization of therapy with hyperlipidemia agents” (McGill University, priority 2001, published 2003):
Where two headings read alike, the source gives them in different places. Marks after values point to notes of the source that are not given here.

Columns and labels:
1X-Ab = test: Competitive antigen ELISA, cross-reactivity of 1X-Ab; assay type: binding, rabbit; conditions: for % Cross-Reaction 1X-Ab: competitive antigen ELISA, 0 = absence of inhibition or inhibition no higher than 40% at 5 × 10^−3 M
Protocol: (§1) Buffers and water without additives are filtered through millipore filters and kept for 1 week. BSA, antibodies, Tween™ 20 and horse radish peroxidase conjugates are added to these buffers and water just prior to use. Urine samples are usually collected 4 hours after drinking a cup of coffee (instant or brewed with approximately 100 mg of caffeine per cup) and stored at −80° C. The urine samples are diluted 10 times with sodium phosphate buffer (620 mosm, pH 7.50) and are subsequently diluted with water to give concentrations of AAMU and 1X no higher than 3×10^−6 M in the ELISA. All the pipettings are done with an eight-channel pipette, except those of the antibody and sample solutions. Starting with the last well, 100 μL of a carbonate buffer (100 mM, pH 9.6) containing 2.5 μg mL-^1 antibodies are added to each well. After 90 min. at room temperature, the wells are washed three times with […] of TPB: isotonic sodium phosphate buffer (310 mosm, pH 7.50) containing 0.05% Tween™ 20.
(§2) After the initial wash, unoccupied sites are blocked by incubation for 90 min. at room temperature with 100 μL TBP containing 3% BSA. The wells are washed four times with 100 μL TPB. […] The microplate is gently shaken with an orbital shaker at room temperature for 3-4 hours. The wells are washed three times with 100 μL TPB containing 1% BSA and three times with water containing 0.05% Tween™ 20. To the washed plate is added 150 μL of a substrate buffer composed of citric acid (25 mM) and sodium phosphate dibasic buffer (50 mM, pH 5.0) containing 0.06% hydrogen peroxide and 0.04% o-phenylenediamine hydrochloride.
(§3) Buffers and water without additives were filtered through millipore filters and kept for 1 week. BSA, antibodies, Tween™ 20 and horse radish peroxidase conjugates were added to these buffers and water just prior to use. Urine samples were usually collected 4 hours after drinking a cup of coffee (instant or brewed with approximately 100 mg of caffeine per cup) and stored at −80° C. They were diluted 10 times with sodium phosphate buffer (620 mosm, pH 7.50) and were subsequently diluted with water to give concentrations of AAMU and 1X no higher than 3×10^−6 M in the ELISA. All the pipettings were done with an eight-channel pipette, except those of the antibody and sample solutions. Starting with the last well, 100 μL of a carbonate buffer (100 mM, pH 9.6) containing 2.5 μg mL-^1 antibodies was pipetted. After 90 min. at room temperature, the wells were washed three times with 100 μL of TPB: isotonic sodium phosphate buffer (310 mosm, pH 7.50) containing 0.05% Tween™ 20.
(§4) After the initial wash, unoccupied sites were blocked by incubation for 90 min. at room temperature with 100 μL TBP containing 3% BSA. The wells were washed four times with 100 μL TPB. […] The microplate was gently shaken with an orbital shaker at room temperature for 3-4 hours. The wells were washed three times with 100 μL with TPB containing 1% BSA and three times with water containing 0.05% Tween™ 20. To the washed plate was added 150 μL of a substrate buffer composed of citric acid (25 mM) and sodium phosphate dibasic buffer (50 mM, pH 5.0) containing 0.06% hydrogen peroxide and 0.04% o-phenylenediamine hydrochloride. After 20 min. at room temperature with shaking, the reaction was stopped with 50 μL of 2.5 N HCl.
(§5) The cross reactivities of AAMU-Ab and 1X-Ab were tested using a wide variety of caffeine metabolites and structural analogs (Table 2 below).

AAMU-Ab = test: Competitive antigen ELISA, cross-reactivity of AAMU-Ab; assay type: binding, rabbit; conditions: for % Cross-Reaction AAMU-Ab: competitive antigen ELISA, 0 = absence of inhibition or inhibition no higher than 40% at 5 × 10^−3 M
Protocol: as §1, §2, §3, §4, §5

[1] = cited from earlier work
[2] = cited from earlier work; remark: listed apart in the source
[3] = cited from earlier work; remark: listed apart in the source

| Structure (SMILES) | % Cross-Reaction 1X-Ab (1X-Ab) [%] | % Cross-Reaction AAMU-Ab (AAMU-Ab) | further results |
| --- | --- | --- | --- |
| Cn1c(=O)c2c(ncn2C)n(C)c1=O [1,3,7-Trimethyl Xanthine (Caffeine), 1,3,7-Trimethyl Xanthine] | 0 | 0% |  |
| Cn1c(=O)c2[nH]cnc2n(C)c1=O [1,3-Dimethyl Xanthine (Theophylline), 1,3-Dimethyl Xanthine] | 0.2 | 0% |  |
| Cn1c(=O)[nH]c2ncn(C)c2c1=O [1,7-Dimethyl Xanthine (Paraxanthine), 1,7-Dimethyl Xanthine] | 0.5 | 0% |  |
| Cn1c(=O)[nH]c2[nH]c(=O)n(C)c2c1=O [1,7-Dimethyluric acid] | 0 | 0% |  |
| Cn1c(=O)[nH]c2nc[nH]c2c1=O [1-Methyl Xanthine (1X), 1-Methyl Xanthine] | 100 | 0% | IC50 (1X-Ab; read-out: concentration required for 50% inhibition in the competitive antigen ELISA, 1X-Ab): 10 µM |
| Cn1c(=O)[nH]c2[nH]c(=O)[nH]c2c1=O [1-Methyluric acid] | 11 | 0% |  |
| Cn1cnc2c1c(=O)[nH]c(=O)n2C [3,7-Dimethyl Xanthine (Theobromine), 3,7-Dimethyl Xanthine] | 0 | 0% |  |
| Cn1c(=O)[nH]c(=O)c2[nH]cnc21 [3-Methyl Xanthine] | 0 | 0% |  |
| CC(=O)Nc1c(N)n(C)c(=O)n(C)c1=O [5-Acetamino-6-amino-1,3-dimethyluracil] | 0 | 0% |  |
| CC(=O)Nc1c(N)n(C)c(=O)[nH]c1=O [5-Acetamino-6-amino-1-methyluracil] | 0 | 100% | IC50 (AAMU-Ab; read-out: concentration required for 50% inhibition in the competitive antigen ELISA, AAMU-Ab): 1.5 µM |
| CC(=O)Nc1c(N)[nH]c(=O)[nH]c1=O [5-Acetamino-6-amino-uracil] | 0 | 0.6% |  |
| Cn1cnc2[nH]c(=O)[nH]c(=O)c21 [7-Methyl Xanthine] | 0 | 0% |  |
| Cc1nc2[nH]c(=O)[nH]c(=O)c2[nH]1 [8-Methyl Xanthine] | 0 | 0% |  |
| COc1ccc2c(c1)[C@]13CCCC[C@@H]1[C@H](C2)N(C)CC3 [Dextromethorphan] |  |  | mean performance ±SE ([1]; EMs (extensive metabolizers)): 95±0.5%; mean performance ±SE ([1]; PMs (poor metabolizers)): 86±6% |
| Nc1nc2nc[nH]c2c(=O)[nH]1 [Guanine] | 0 | 0% |  |
| O=c1[nH]cnc2nc[nH]c12 [Hypoxanthine] | 0 | 0% |  |
| NC(=O)c1cccnc1 [Nicotinamide] |  |  | effect on lipoproteins ([2]; doses similar to those of nicotinic acid): does not have a significant effect on lipoproteins |
| O=c1cc[nH]c(=O)[nH]1 [Uracil] | 0 | 0% |  |
| O=c1[nH]c(=O)c2[nH]c(=O)[nH]c2[nH]1 [Uric acid] | 0 | 0% |  |
| O=c1[nH]c(=O)c2[nH]cnc2[nH]1 [Xanthine] | 0 | 0^a % |  |
| Nc1ccc(S(=O)(=O)c2ccc(N)cc2)cc1 [dapsone] |  |  | adverse reactions to dapsone ([3]; fast acetylators): 17%; adverse reactions to dapsone ([3]; slow acetylators): 46% |
| O=C(O)c1cccnc1 [niacin, nicotinic acid] |  |  | LDL cholesterol reduction ([2]; 1000 to 1500 mg per day): about 15%; reduction of triglyceride levels ([2]; 1000 to 1500 mg per day): up to 30%; LDL cholesterol-lowering effect ([2]; 2000 to 4000 mg per day): ~25%; increase in HDL cholesterol level ([2]; 2000 to 4000 mg per day): up to 30%; reduction of triglyceride levels ([2]; 2000 to 4000 mg per day): up to 50%; effect on lipoproteins ([2]; low dosages (<500 mg per day)): little predictable effect |
